In one test the target is T1, CDK7 (Homo sapiens, UniProt P50613).
T1 construct: purchased Carna Biosciences, Inc. 04-108
Kind of test: CDK7 enzyme inhibition test. The settings on record: Ki=IC50/(1+S/Km); 33P bound to MBP, [γ-33P]ATP, 30° C. for 20 minutes; read-out: Ki value of CDK7 inhibitory activity. The class given is biochemical. The procedure, abridged: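 Recombinant CDK7 with MBP substrate and [γ-33P]ATP (500 μM solution, diluted into the mix) in HEPES pH 7.4/DTT/Triton X-100/MgCl2, 20 min at 30 °C. TCA-precipitated 33P-MBP counted by scintillation; IC50 from inhibition, Ki = IC50/(1+S/Km).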

The test system of test [1] is IL-2 production in human peripheral blood mononuclear cell (PBMC). Description: Human PBMC CD3/CD28-induced IL-2 production inhibition test. The class given is cell-based. The conditions noted are these: 48 h, CD3/CD28 stimulation, incubation for 2 days, ELISA. The procedure, abridged: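 Healthy-donor PBMC were stimulated with compound for 2 days on anti-CD3-coated plates with anti-CD28 (2 μg/mL in medium before cell addition), in RPMI1640/10% FBS with 0.1% DMSO final. Supernatant IL-2 was measured by sandwich ELISA; IC50 (nM) came from inhibition relative to DMSO-only stimulated wells.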
For orientation: In an ELISA, binding on a coated surface is turned into a signal by an enzyme label.

Test [2] concerns human large intestine cancer cell line (HCT-116). Kind of test: Human large intestine cancer (HCT-116) cell growth inhibition test. The format is cell-based. The settings on record: 72 h, HCT-116, culture for 3 days, sulforhodamine B absorbance. The procedure, abridged:
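HCT-116 cells seeded at 1.0×10^3 cells/well in McCoy's 5a with 10% FBS, then exposed to compound (0.1% DMSO final) for 3 days. Growth measured by sulforhodamine B absorbance; IC50 derived from concentration-inhibition data.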

T1 sequence (P50613 whole entry): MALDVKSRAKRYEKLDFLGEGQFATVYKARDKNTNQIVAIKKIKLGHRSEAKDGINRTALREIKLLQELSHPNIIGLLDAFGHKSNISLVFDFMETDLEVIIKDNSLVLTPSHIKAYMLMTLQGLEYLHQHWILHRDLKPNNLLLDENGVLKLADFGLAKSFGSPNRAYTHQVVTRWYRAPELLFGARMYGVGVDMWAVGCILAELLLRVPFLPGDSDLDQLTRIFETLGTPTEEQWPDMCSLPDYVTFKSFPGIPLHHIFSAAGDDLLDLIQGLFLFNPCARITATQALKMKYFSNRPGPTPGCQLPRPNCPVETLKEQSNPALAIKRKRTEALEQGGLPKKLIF
T1 sequence (P51946 whole entry partner): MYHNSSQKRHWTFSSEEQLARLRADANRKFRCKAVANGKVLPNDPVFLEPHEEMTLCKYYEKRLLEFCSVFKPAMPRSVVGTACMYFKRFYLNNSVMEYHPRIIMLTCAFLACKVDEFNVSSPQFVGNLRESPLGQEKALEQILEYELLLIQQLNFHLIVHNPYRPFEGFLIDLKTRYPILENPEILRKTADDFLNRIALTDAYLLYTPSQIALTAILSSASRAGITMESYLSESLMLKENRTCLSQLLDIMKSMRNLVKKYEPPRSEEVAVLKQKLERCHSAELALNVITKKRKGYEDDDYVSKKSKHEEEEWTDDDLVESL
T1 sequence (P51948 whole entry partner): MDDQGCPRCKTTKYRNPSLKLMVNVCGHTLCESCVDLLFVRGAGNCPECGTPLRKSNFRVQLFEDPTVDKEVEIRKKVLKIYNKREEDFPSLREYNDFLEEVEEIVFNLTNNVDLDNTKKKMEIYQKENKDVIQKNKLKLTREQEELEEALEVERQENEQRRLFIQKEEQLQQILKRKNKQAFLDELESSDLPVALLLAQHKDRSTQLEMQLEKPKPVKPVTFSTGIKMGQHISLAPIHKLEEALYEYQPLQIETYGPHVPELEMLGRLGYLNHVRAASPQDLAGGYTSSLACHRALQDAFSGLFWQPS

Turning to `CC1(C)c2[nH]nc(NC(=O)C3([Si](C)(C)C)CC3)c2CN1C(=O)N[C@H](CO)c1ccccc1` [III-114, (S)—N-(2-Hydroxy-1-phenylethyl)-6,6-dimethyl-3-[1-(trimethylsilyl)cyclopropanecarboxamido]-4,6-dihydropyrrolo[3,4-c]pyrazole-5(1H)-carboxamide], the Ki on CDK7 is at most 50 nM. For the same compound, the IC50 in test [1] is at most 50 nM; in test [2], at most 500 nM.

As to `CC1(C)c2[nH]nc(NC(=O)C3([Si](C)(C)C)CCC3)c2CN1C(=O)N[C@H](CCO)c1ccccc1` [IV-227, (R)—N-(3-Hydroxy-1-phenylpropyl)-6,6-dimethyl-3-[1-(trimethylsilyl)cyclobutanecarboxamido]-4,6-dihydropyrrolo[3,4-c]pyrazole-5(1H)-carboxamide], the Ki on CDK7 is at most 50 nM. The results for the concentration for half-maximal inhibition (IC50) in test [1] and in test [2] were at most 50 nM and at most 500 nM, respectively.

On to `CO[C@@H](C(=O)N1Cc2c(NC(=O)C3([Si](C)(C)C)CCC3)n[nH]c2C1(C)C)c1ccccc1` [IV-1175, (R)—N-[5-(2-Methoxy-2-phenylacetyl)-6,6-dimethyl-1,4,5,6-tetrahydropyrrolo[3,4-c]pyrazol-3-yl]-1-(trimethylsilyl)cyclobutanecarboxamide], for which the inhibition constant (Ki) on CDK7 is at most 50 nM. The IC50 in test [1] was at most 50 nM; in test [2] it was at most 500 nM.

Usually Ki stands for a dissociation constant, usually derived from enzyme kinetics or from competition with a known ligand. One may read the IC50 as the midpoint of a concentration-inhibition curve. Low readings indicate greater potency in that assay, high ones weaker potency in that assay.

The values are drawn from patent US10131679B2, “Substituted dihydropyrrolopyrazole compound” (UBE INDUSTRIES, LTD., priority 2014, dated 2018).
